Values quoted from earlier work in patent US11304932B2, “Diaryl and arylheteroaryl urea derivatives as modulators of the 5-HT2A serotonin receptor useful for the prophylaxis and treatment of hallucinations associated with a neurodegenerative disease” (Axovant Sciences GmbH, priority 2015, dated 2022).

Columns and labels:
[1] = clozapine at low dose

SMILES	tolerability and PK/PD profile (daily dose of 80 mg, studies completed to date)	safety and tolerability profile (previous clinical studies to date, proposed dose range)	efficacy in psychotic symptoms associated with Parkinson's Disease [1]
COc1ccc(NC(=O)Nc2ccc(F)cc2F)cc1-c1c(Br)cnn1C [Nelotanserin, 1-[3-(4-bromo-2-methyl-2H-pyrazol-3-yl)-4-methoxy-phenyl]-3-(2,4-difluoro-phenyl)-urea]	favorable tolerability and PK/PD profile	acceptable safety and tolerability profile	–
CC(C)COc1ccc(CNC(=O)N(Cc2ccc(F)cc2)C2CCN(C)CC2)cc1 [pimavanserin, N-(4-fluorophenylmethyl)-N-(1-methylpiperidin-4-yl)-N′-(4-(2-methylpropyloxy)phenylmethyl)carbamide]	–	–	demonstrate efficacy
